According to paper PMC6851324, “Design and development of stapled transmembrane peptides that disrupt the activity of G-protein–coupled receptor oligomers” (The Journal of Biological Chemistry, 2019):
Where two headings read alike, the source gives them in different places. Where a SMILES comes first, the peptide text is derived from it. Bridges are numbered along the chain shown (N, C = ends). Where no end group is shown, it is not given here. [ ]: non-standard residue; d: D form. S5 = C=CCCC[C@](C)(N)C(=O)O; Nle = CCCC[C@H](N)C(=O)O

Legend:
[1] = target: T1, trypsin from porcine pancreas (Sus scrofa, UniProt P00761); assay: Proteolytic stability against trypsin; type: in vitro ADME; details: pig
T1 construct: purchased Sigma; host or cells: porcine pancreas
Protocol: (§1) Figure 4. Biophysical analysis of stapled peptides. A, amino acid sequence alignment of the targeted TM regions and disrupting peptides. Cys residues are in the reduced state. Blue bridges indicate the stapled amino acid residues. […] Yields, purity, and MALDI-TOF data are shown for the stapled peptides and negative control. B, CD analysis of 30–50 μM peptides at 20 °C. For proteolytic stability studies, the peptide solution (55.5 μM for trypsin and chymotrypsin and 11.1 μM for serum) was incubated in the presence of 0.55 μg/ml trypsin from porcine pancreas (E), α-chymotrypsin (F), or mouse serum (G) at 37 °C for the indicated times (indicated on the x axis). Data are mean ± S.E. (error bars) (n = 3) percentage of intact peptide normalized to t = 0. Proteolytic half-lives and putative cleavage sites (predicted using the Expasy bioinformatics server's model with a 50% probability of cleavage) are indicated at the bottom of each panel. Positive correlation between helicity and half-life in trypsin/chymotrypsin (C) or serum (D) was determined by two-tailed Pearson's correlation test. TEXT PRINTED IN THE PICTURE: (B) TM7-TAT: Ellipticity (%): 3.4 | (B) TM6-TAT: Ellipticity (%): 18.3 | (B) TM5-TAT: Ellipticity (%): 20.9 | (B) 8: Ellipticity (%): 58.3 | (B) 9: Ellipticity (%): 46.4 | (B) 10: Ellipticity (%): 36.8 | (B) 11: Ellipticity (%): 46 | (E) TM7-TAT: Half-life (min): 21; #Cleavage sites: 8 | (E) TM6-TAT: Half-life (min): 40; #Cleavage sites: 7 | (E) TM5-TAT: Half-life (min): 33; #Cleavage sites: 8 | (E) 8: Half-life (min): 307; #Cleavage sites: 0 | (E) 9: Half-life (min): 178; #Cleavage sites: 0 | (E) 10: Half-life (min): 75; #Cleavage sites: 6 | (E) 11: Half-life (min): 84; #Cleavage sites: 0 | (F) TM7-TAT: Half-life (min): 22; #Cleavage sites: 6 | (F) TM6-TAT: Half-life (min): 32; #Cleavage sites: 7 | (F) TM5-TAT: Half-life (min): 28; #Cleavage sites: 7 | (F) 8: Half-life (min): 425; #Cleavage sites: 4 | (F) 9: Half-life (min): 198; #Cleavage sites: 3 | (F) 10: Half-life (min): 63; #Cleavage sites: 2 | (F) 11: Half-life (min): 79; #Cleavage sites: 4 | (G) TM7-TAT: Half-life (hours): 0.46 | (G) TM6-TAT: Half-life (hours): 0.55 | (G) TM5-TAT: Half-life (hours): 0.81 | (G) 8: Half-life (hours): ≥18 | (G) 9: Half-life (hours): 14.7 | (G) 10: Half-life (hours): 11.7 | (G) 11: Half-life (hours): 5.3 DOUBTS OF THE COPYIST ABOUT THIS PICTURE: Panel A table (Yield, Rt, Purity, [M+H+] calc., [M+H+] Peak Found for 7-11) left out as synthesis and mass-spectrum characterisation data; uncertain whether [M+H+] calc. should count as a molecular weight
(§2) Dose–response curves were fitted using a four-parameter logistic nonlinear regression mode. Peptide stability data were fitted using a nonlinear regression mode for dissociation kinetics. All statistical tests, curve fitting, and graphing were performed using GraphPad Prism 8 (GraphPad Software, La Jolla, CA).
To 100 μl of peptide solution (100 μM, dissolved in ammonium bicarbonate buffer, pH 7.5), 60 μl of ammonium bicarbonate buffer (pH 7.5) was added, together with 20 μl of temperature-equilibrated (37 ± 1 °C) trypsin (5 μg/ml) from porcine pancreas (Sigma, 13,000–20,000 BAEE units/mg of protein). Peptides were incubated for 15, 30, 60, 120, 240, and 480 min, and then MeOH (HPLC Grade) + 0.05% TFA was added. The samples were then centrifuged (15,000 rpm), and the supernatant was analyzed, using Fmoc-Gly (10 μl, 0.2 mM) as an internal standard. The digestion at each time point was repeated three times to give the average values along with S.D. The amount of intact peptide that remained in the mixture was quantified by RP-HPLC. The experiment was repeated twice on different days.

[2] = target: T2, α-chymotrypsin from bovine pancreas (Bos taurus, UniProt P00766, DEL14-15/DEL147-148); assay: Proteolytic stability against chymotrypsin; type: in vitro ADME; details: cattle
T2 construct: purchased Sigma Type II; host or cells: bovine pancreas
Protocol: as §1, §2
To 100 μl of peptide solution (100 μM, dissolved in ammonium bicarbonate buffer, pH 7.5), 60 μl of ammonium bicarbonate buffer (pH 7.5) was added, together with 20 μl of temperature-equilibrated (37 ± 1 °C) α-chymotrypsin (5 μg/ml) from bovine pancreas (Sigma, Type II, activity > 40 units/mg protein). Peptides were incubated for 15, 30, 60, 120, 240, and 480 min, and then MeOH (HPLC grade) + 0.05% TFA was added. The samples were then centrifuged (15,000 rpm), and supernatant was analyzed in a similar manner as described above. The experiment was repeated twice on different days.

[3] = isolated enzyme trypsin, 55.5 μM peptide, 0.55 μg/ml trypsin from porcine pancreas, ammonium bicarbonate buffer pH 7.5, 37 °C, 15–480 min, intact peptide by RP-HPLC (Fmoc-Gly internal standard), n = 3, nonlinear regression fit, read-out: Half-life (min), trypsin
[4] = isolated enzyme chymotrypsin, 55.5 μM peptide, 0.55 μg/ml α-chymotrypsin from bovine pancreas, ammonium bicarbonate buffer pH 7.5, 37 °C, 15–480 min, intact peptide by RP-HPLC, n = 3, nonlinear regression fit, read-out: Half-life (min), α-chymotrypsin

T1 sequence (P00761 9-231): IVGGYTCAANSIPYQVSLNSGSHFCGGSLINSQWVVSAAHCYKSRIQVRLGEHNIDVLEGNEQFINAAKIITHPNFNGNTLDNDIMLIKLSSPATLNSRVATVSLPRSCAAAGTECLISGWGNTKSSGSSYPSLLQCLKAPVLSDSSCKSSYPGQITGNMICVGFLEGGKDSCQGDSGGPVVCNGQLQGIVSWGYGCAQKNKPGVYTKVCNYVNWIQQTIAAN

**Q.** Which half-life at 55.5 μM ([1]; isolated enzyme trypsin, pH 7.5, Half-life (min), trypsin) does the source give for `C=CCCC[C@](C)(NC(=O)[C@H](Cc1ccc(O)cc1)NC(=O)[C@@H](N)C(C)C)C(=O)N[C@@H](Cc1ccc(O)cc1)C(=O)N[C@@H](CCCC)C(=O)N[C@@](C)(CCCC=C)C(=O)N[C@H](C(=O)N[C@@H](CC(C)C)C(=O)N[C@@H](Cc1c[nH]c2ccccc12)C(N)=O)[C@@H](C)CC` [Peptide 11] (H-VY[S5]Y[Nle][S5]ILW-NH2) here?
**A.** Its half-life at 55.5 μM is 84 min.

**Q.** And the half-life at 55.5 μM ([2]; isolated enzyme chymotrypsin, pH 7.5)?
**A.** The half-life at 55.5 μM was 79 min.

**Q.** Which results are given for `CCCC[C@H](NC(=O)[C@]1(C)CCC/C=C\CCC[C@](C)(NC(=O)[C@H](Cc2ccccc2)NC(=O)[C@H](CC(C)C)NC(=O)[C@H](CC(C)C)NC(=O)[C@H](CC(C)C)NC(=O)[C@@H](N)C(C)C)C(=O)N[C@@H](C(C)C)C(=O)N[C@@H](Cc2ccc(O)cc2)C(=O)N[C@@H](C)C(=O)N1)C(=O)N[C@@H](Cc1ccc(O)cc1)C(=O)N[C@H](C(=O)N[C@@H](CC(C)C)C(=O)N[C@@H](Cc1c[nH]c2ccccc12)C(N)=O)[C@@H](C)CC` [Peptide 8] (H-VLLLF[S5]VYA[S5][Nle]YILW-NH2; staple (Z) 6-10)?
**A.** half-life at 55.5 μM ([1]; trypsin from porcine pancreas, pH 7.5, trypsin 0.55 μg/ml, 37 °C, pH 7.5, approximate value of running text, read-out: half-life in trypsin as stated in text (converted)): ~300 min; half-life at 55.5 μM ([1]; 55.5 μM peptide, 0.55 μg/ml trypsin from porcine pancreas, ammonium bicarbonate buffer pH 7.5, 37 °C, 15–480 min, intact peptide by RP-HPLC (Fmoc-Gly internal standard), n = 3, nonlinear regression fit, read-out: Half-life (min), trypsin): 307 min; half-life at 55.5 μM ([2]; 55.5 μM peptide, 0.55 μg/ml α-chymotrypsin from bovine pancreas, ammonium bicarbonate buffer pH 7.5, 37 °C, 15–480 min, intact peptide by RP-HPLC, n = 3, nonlinear regression fit, read-out: Half-life (min), α-chymotrypsin): 425 min

**Q.** How did the half-life at 55.5 μM [1, 3] turn out when “GRKKRRQRRRKTLVLILVVLIICWGPLLAIMVY [TM6-TAT, reference compound]” was run?
**A.** The half-life at 55.5 μM was 40 min.

**Q.** And the half-life at 55.5 μM [2, 4]?
**A.** Its half-life at 55.5 μM is 32 min.

**Q.** Which results are given for “ETYLMFWIGVTSVLLLFIVYAYMYILWGRKKRRQRRR [TM5-TAT, reference compound]”?
**A.** half-life at 55.5 μM [1, 3]: 33 min; half-life at 55.5 μM [2, 4]: 28 min
